According to patent US10376484B2, “Combination of bezafibrate and of resveratrol or resveratrol derivatives for the treatment and prevention of diseases involving a mitochondrial energy dysfunction” (priority 2013, dated 2019):

Assays:
Assay type in all cases: cell-based, human
[1] = system: fibroblasts of patients suffering from moderate CPT2 deficiency; assay: Tritiated palmitate β-oxidation (FAO) in fibroblasts after 48 h treatment, CPT2 deficiency; details: for % increase in fatty acid oxidation (FAO): 48 h, vs carrier
Procedure: (§1) Cellular palmitate β-oxidation activity can be measured with any suitable technology known to persons skilled in the art. That can in particular be achieved by using tritiated palmitate complexed with BSA (bovine albumin serum), which is added to the cells to be tested. After incubation, the addition of trichloroacetic acid (TCA) in a supernatant sample makes it possible to precipitate unmetabolized complexes (BSA/tritiated palmitate), which are excluded by centrifugation. The measurement of tritium present in the supernatant after centrifugation and exclusion of unmetabolized complexes (BSA/tritiated palmitate) makes it possible to determine the amount of palmitate metabolized by the cells. A precise example of a protocol for implementing this process for measuring palmitate β-oxidation activity is described in Example 1. The fibroblasts are grown at 37° C. in complete Ham's F10 medium, i.e., supplemented with 12% fetal calf serum, 100 U/ml penicillin, and 0.1 mg/ml streptomycin, at a concentration of 70,000 cells per ml and per well in 24-well culture dishes. Twenty-four hours after seeding, stock solutions of RSV (0.2 M) and of BZ (0.4 M) are prepared in DMSO in order to prepare the various cell treatment media. For the treatment, the culture medium is discarded and replaced with 1 ml of complete Ham's F10 medium supplemented with one of the molecules of interest at one of the following concentrations, 75 μM RSV, or 400 μM BZ, or 20 μM RSV, or 30 μM RSV, […], […], or the culture medium is discarded and replaced with 1 ml of complete Ham's F10 medium supplemented with a combination of the two molecules of interest at the following concentrations: ([…]), or ([…]). Additional wells receive 1 ml of complete medium supplemented with the diluent of the molecules of interest only (<0.05% DMSO). Each of these treatment conditions is applied in triplicate (3 wells) for each patient, in each experiment. The 24-well dishes are then incubated at 37° C. for 48 hours. Thus, the cells of each individual studied are treated in all of the conditions listed, in parallel, for 48 hours, before the measurement of palmitate β-oxidation. The fatty acid used is palmitate labeled with tritium at positions 9 and 10 (^3H-Pal). A stock solution is prepared beforehand by mixing 100 μl of ^3H-Pal, 130 μl of 50 mM “cold” palmitate and 13 ml of 25 mg/ml BSA solution. A ^3H-Pal/BSA (bovine serum albumin) complex ensuring good palmitate solubilization is thus obtained (final palmitate concentration: 500 μM). The test of ^3H-palmitate oxidation is carried out on fibroblasts seeded in a 24-well plate. The culture medium is first discarded and the wells are rinsed three times with PBS. A 125 μM ^3H-Pal working solution is prepared, from the 500 μM stock solution, in PBS with Ca/Mg, supplemented with 1 mM carnitine. 200 μl of t[…]-Pal solution is introduced into each well and the plates are incubated at 37° C. for 2 hours. During this time, three counting vials are prepared for the measurement of specific radioactivity (RDA, in CPM/nmol of fatty acids) of the reaction medium. These vials contain 5 ml of scintillation fluid, 1.5 ml of distilled water, and 20 μl of ^3H-Pal/BSA solution. The scintillation fluid converts the radioactive energy of ^3H into light energy, which thus makes it possible to measure radioactivity, expressed in counts per minute (CPM), using a liquid scintillation counter. At the end of 2 hours of incubation, 200 μl is taken from each well and mixed with 200 μl of 10% trichloroacetic acid (TCA). This strong acid ensures the precipitation of unmetabolized BSA/AG complex. The tubes are then centrifuged at 3300 rpm for 10 minutes at 4° C. After centrifugation, 350 μl of supernatant is taken and mixed with […] of 6 M NaOH in order to neutralize the pH. The total volume, or 450 μl, is transferred to an ion-exchange resin column which retains the tritiated water. These columns are then transferred to scintillation vials. […]

[2] = system: fibroblasts of patients suffering from moderate β-oxidation deficiency; assay: Palmitate β-oxidation, correction of deficiency, pooled statements over deficiency types; details: for reduction in dose by a factor, combination vs compound alone: 30 μM RSV + 35 μM BZ vs 75 μM RSV / 400 μM BZ; for reduction in dose by a factor, combination vs compound alone / concentration at which the compound alone corrects the deficiency: VLCAD and CPT2 deficiency; for concentration at which the compound alone corrects the deficiency: compound used alone; for factor by which combining the two molecules decreases the dose needed to correct the deficiency: conclusion over three types of moderate β-oxidation enzyme deficiencies
Procedure: The fibroblasts are grown at 37° C. in complete Ham's F10 medium, i.e., supplemented with 12% fetal calf serum, 100 U/ml penicillin, and 0.1 mg/ml streptomycin, at a concentration of 70,000 cells per ml and per well in 24-well culture dishes. Twenty-four hours after seeding, stock solutions of RSV (0.2 M) and of BZ (0.4 M) are prepared in DMSO in order to prepare the various cell treatment media. For the treatment, the culture medium is discarded and replaced with 1 ml of complete Ham's F10 medium supplemented with one of the molecules of interest at one of the following concentrations, 75 μM RSV, or 400 μM BZ, or 20 μM RSV, or 30 μM RSV, or 25 μM RSV, or 35 μM RSV, or the culture medium is discarded and replaced with 1 ml of complete Ham's F10 medium supplemented with a combination of the two molecules of interest at the following concentrations: (20 μM RSV+[…]), or (30 μM RSV+[…]). Additional wells receive 1 ml of complete medium supplemented with the diluent of the molecules of interest only (<0.05% DMSO). Each of these treatment conditions is applied in triplicate (3 wells) for each patient, in each experiment. The 24-well dishes are then incubated at 37° C. for 48 hours. Thus, the cells of each individual studied are treated in all of the conditions listed, in parallel, for 48 hours, before the measurement of palmitate β-oxidation. The fatty acid used is palmitate labeled with tritium at positions 9 and 10 (^3H-Pal). A stock solution is prepared beforehand by mixing 100 μl of ^3H-Pal, 130 μl of 50 mM “cold” palmitate and 13 ml of 25 mg/ml BSA solution. A ^3H-Pal/BSA (bovine serum albumin) complex ensuring good palmitate solubilization is thus obtained (final palmitate concentration: 500 μM). The test of ^3H-palmitate oxidation is carried out on fibroblasts seeded in a 24-well plate. The culture medium is first discarded and the wells are rinsed three times with PBS. A 125 μM ^3H-Pal working solution is prepared, from the 500 μM stock solution, in PBS with Ca/Mg, supplemented with 1 mM carnitine. 200 μl of t[…]-Pal solution is introduced into each well and the plates are incubated at 37° C. for 2 hours. During this time, three counting vials are prepared for the measurement of specific radioactivity (RDA, in CPM/nmol of fatty acids) of the reaction medium. These vials contain 5 ml of scintillation fluid, 1.5 ml of distilled water, and 20 μl of ^3H-Pal/BSA solution. The scintillation fluid converts the radioactive energy of ^3H into light energy, which thus makes it possible to measure radioactivity, expressed in counts per minute (CPM), using a liquid scintillation counter. At the end of 2 hours of incubation, 200 μl is taken from each well and mixed with 200 μl of 10% trichloroacetic acid (TCA). This strong acid ensures the precipitation of unmetabolized BSA/AG complex. The tubes are then centrifuged at 3300 rpm for 10 minutes at 4° C. After centrifugation, 350 μl of supernatant is taken and mixed with […] of 6 M NaOH in order to neutralize the pH. The total volume, or 450 μl, is transferred to an ion-exchange resin column which retains the tritiated water. These columns are then transferred to scintillation vials. The tritiated water is then eluted with 1.7 ml of distilled water. 5 ml of scintillation fluid is added to the tritiated water and the vials are placed in the liquid scintillation counter.

[3] = system: fibroblasts of patients suffering from moderate VLCAD deficiency; assay: Tritiated palmitate β-oxidation (FAO) in fibroblasts after 48 h treatment, VLCAD deficiency; details: for % increase in fatty acid oxidation (FAO): 48 h, vs carrier
Procedure: as §1

CC(C)(Oc1ccc(CCNC(=O)c2ccc(Cl)cc2)cc1)C(=O)O [BZ, 2-(4-(2-((4-chlorobenzoyl)amino)ethyl)phenoxy)-2-methylpropanoic acid]
% increase in fatty acid oxidation (FAO) ([1]; patient DIA Ke, 400 μM BZ alone): 62%
% increase in fatty acid oxidation (FAO), Measured ([1]; patient DIA Ke, Condition 1, 25 μM BZ alone): 0%
% increase in fatty acid oxidation (FAO), Measured ([1]; patient DIA Ke, Condition 2, 35 μM BZ alone): 6%
% increase in fatty acid oxidation (FAO) ([1]; patient alpha, 400 μM BZ alone): 88%
% increase in fatty acid oxidation (FAO), Measured ([1]; patient alpha, Condition 1, 25 μM BZ alone): 0%
% increase in fatty acid oxidation (FAO), Measured ([1]; patient alpha, Condition 2, 35 μM BZ alone): 6%
reduction in dose by a factor, combination vs compound alone [2]: 11.4
concentration at which the compound alone corrects the deficiency [2]: 400 µM
factor by which combining the two molecules decreases the dose needed to correct the deficiency [2]: 10
% increase in fatty acid oxidation (FAO) ([3]; patient E3536, 400 μM BZ alone): 128%
% increase in fatty acid oxidation (FAO), Measured ([3]; patient E3536, Condition 1, 25 μM BZ alone): 7%
% increase in fatty acid oxidation (FAO), Measured ([3]; patient E3536, Condition 2, 35 μM BZ alone): 20%
% increase in fatty acid oxidation (FAO) ([3]; patient beta, 400 μM BZ alone): 83%
% increase in fatty acid oxidation (FAO), Measured ([3]; patient beta, Condition 1, 25 μM BZ alone): 1%
% increase in fatty acid oxidation (FAO), Measured ([3]; patient beta, Condition 2, 35 μM BZ alone): 8%

Oc1ccc(/C=C/c2cc(O)cc(O)c2)cc1 [RSV, 5-[(E)-2-(4-hydroxyphenyl)-ethenyl]benzene-1,3-diol]
% increase in fatty acid oxidation (FAO) ([1]; patient DIA Ke, 75 μM RSV alone): 44%
% increase in fatty acid oxidation (FAO), Measured ([1]; patient DIA Ke, Condition 1, 20 μM RSV alone): 49%
% increase in fatty acid oxidation (FAO), Measured ([1]; patient DIA Ke, Condition 2, 30 μM RSV alone): 66%
% increase in fatty acid oxidation (FAO) ([1]; patient alpha, 75 μM RSV alone): 100%
% increase in fatty acid oxidation (FAO), Measured ([1]; patient alpha, Condition 1, 20 μM RSV alone): 39%
% increase in fatty acid oxidation (FAO), Measured ([1]; patient alpha, Condition 2, 30 μM RSV alone): 48%
reduction in dose by a factor, combination vs compound alone [2]: 2.5
concentration at which the compound alone corrects the deficiency [2]: 75 µM
factor by which combining the two molecules decreases the dose needed to correct the deficiency [2]: 2
% increase in fatty acid oxidation (FAO) ([3]; patient E3536, 75 μM RSV alone): 145%
% increase in fatty acid oxidation (FAO), Measured ([3]; patient E3536, Condition 1, 20 μM RSV alone): 81%
% increase in fatty acid oxidation (FAO), Measured ([3]; patient E3536, Condition 2, 30 μM RSV alone): 106%
% increase in fatty acid oxidation (FAO) ([3]; patient beta, 75 μM RSV alone): 67%
% increase in fatty acid oxidation (FAO), Measured ([3]; patient beta, Condition 1, 20 μM RSV alone): 22%
% increase in fatty acid oxidation (FAO), Measured ([3]; patient beta, Condition 2, 30 μM RSV alone): 43%
